EC50 data for 13 compounds are collected here from US9758520B2, “Substituted fused heterocycles as GPR119 modulators for the treatment of diabetes, obesity, dyslipidemia and related disorders” (SANOFI, priority 2014, dated 2017).

The target of the experiment is T1, human GPR119 (Homo sapiens, UniProt Q8TDV5).
T1 construct: expressed in transfected cells
T1 sequence (Q8TDV5 1-335): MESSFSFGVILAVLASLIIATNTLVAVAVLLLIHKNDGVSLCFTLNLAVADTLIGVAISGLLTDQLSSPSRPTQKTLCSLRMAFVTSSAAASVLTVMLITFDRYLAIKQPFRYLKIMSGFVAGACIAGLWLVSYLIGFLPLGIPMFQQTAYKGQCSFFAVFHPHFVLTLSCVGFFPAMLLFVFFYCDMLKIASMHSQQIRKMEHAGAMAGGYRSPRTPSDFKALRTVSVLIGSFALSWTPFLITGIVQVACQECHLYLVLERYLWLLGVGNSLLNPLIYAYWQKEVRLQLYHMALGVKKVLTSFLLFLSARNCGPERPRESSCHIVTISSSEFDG
The experiment in a line: Functional cellular assay measuring GPR119-mediated cAMP release (HTRF) in HEK-293 cells stably expressing recombinant GPR119. The settings on record: cAMP response, cell line expressing human GPR119 (HEK-293), 30 minutes at room temperature. Type of experiment: cell-based. The method, then:
Functional Cellular Assays Measuring GPR119-Mediated cAMP Release
Compounds of the invention, which are agonists of GPR119, were characterized by functional assays measuring the cAMP response of HEK-293 cell lines stably expressing recombinant GPR119 from man, mouse or rat, or by using a hamster cell line HIT-T15 expressing GPR119 endogenously. The cAMP content was determined using a kit based on homogenous time-resolved fluorescence (HTRF) from Cisbio Corp. (cat. no. 62AM4PEC). For preparation, cells were split into T175 culture flasks and grown to near confluency in medium (DMEM/10% FCS for HEK-293 cells, and F-12K medium/10% horse serum/2.5% FCS for HIT-T15 cells, respectively). Medium was then removed and cells washed with PBS lacking calcium and magnesium ions, followed by proteinase treatment with accutase (Sigma-Aldrich, cat. no. A6964). Detached cells were washed and resuspended in assay buffer (1×HBSS; 20 mM HEPES, 0.1% BSA, 2 mM IBMX) and cellular density determined. They were then diluted to 400000 cells/mL and 25 μL-aliquots dispensed to the wells of 96-well plates. For measurement, 25 μL of test compound in assay buffer was added and incubated for 30 minutes at room temperature. After addition of HTRF reagents diluted in lysis buffer, the plates were incubated for 1 hour, followed by measuring the fluorescence ratio at 665 vs. 620 nm. Potency of the agonists was quantified by determining the concentrations that caused 50% of the maximal response/activation (EC50). See Table 3 for exemplary data obtained using the cell line expressing human GPR119.

For orientation: EC50 means the concentration needed to bring the measured effect to its halfway point. Consider `COC(=O)Cn1nc2ccc(N3CC[C@@H](Oc4ccc(OCC5CC5)nc4)C3=O)cc2n1` [Example 1-18, methyl 2-[5-[(3R)-3-[[6-(cyclopropylmethoxy)-3-pyridyl]oxy]-2-oxo-pyrrolidin-1-yl]benzotriazol-2-yl]acetate], for which the EC50 stood at 34 nM.
To `O=C1[C@H](Oc2ccc(OCC3CC3)nc2)CCN1c1ccc2ncnn2c1` [Example 1-02, (3R)-3-[[6-(cyclopropylmethoxy)-3-pyridyl]oxy]-1-([1,2,4]triazolo[1,5-a]pyridin-6-yl)pyrrolidin-2-one] belongs 851 nM; to `O=C(O)Cn1nc2ccc(N3CC[C@@H](Oc4ccc(OCC5CC5)nc4)C3=O)cc2n1` [Example 1-17, 2-[5-[(3R)-3-[[6-(cyclopropylmethoxy)-3-pyridyl]oxy]-2-oxo-pyrrolidin-1-yl]benzotriazol-2-yl]acetic acid], 2110 nM.
To `CS(=O)(=O)Cn1nc2ccc(N3CC[C@@H](Oc4ccc(OCC(F)(F)F)nc4)C3=O)cn2c1=O` [Example 1-33, 2-(methylsulfonylmethyl)-6-[(3R)-2-oxo-3-[[6-(2,2,2-trifluoroethoxy)-3-pyridyl]oxy]pyrrolidin-1-yl]-[1,2,4]triazolo[4,3-a]pyridin-3-one] belongs 113 nM; to `COC(=O)Cn1c(C)c2ccc(N3CC[C@@H](Oc4ccc(OCC5CC5)nc4)C3=O)cn2c1=O` [Example 1-04, methyl 2-[6-[(3R)-3-[[6-(cyclopropylmethoxy)-3-pyridyl]oxy]-2-oxo-pyrrolidin-1-yl]-1-methyl-3-oxo-imidazo[1,5-a]pyridin-2-yl]acetate], 155 nM; to `O=C(Cn1nc2ccc(N3CC[C@@H](Oc4ccc(OCC5CC5)nc4)C3=O)cc2n1)NCCO` [Example 2-04, 2-[5-[(3R)-3-[[6-(cyclopropylmethoxy)-3-pyridyl]oxy]-2-oxo-pyrrolidin-1-yl]benzotriazol-2-yl]-N-(2-hydroxyethyl)acetamide], 343 nM.
For `COC(=O)Cc1cn2cc(N3CC[C@@H](Oc4ccc(OCC5CC5)nc4)C3=O)ccc2n1` [Example 1-20, methyl 2-[6-[(3R)-3-[[6-(cyclopropylmethoxy)-3-pyridyl]oxy]-2-oxo-pyrrolidin-1-yl]imidazo[1,2-a]pyridin-2-yl]acetate], the EC50 turned out to be 9920 nM.
As for `CN(C)C(=O)Cn1nc2c(F)cc(N3CC[C@@H](Oc4ccc(OCC5CC5)nc4)C3=O)cn2c1=O` [Example 2-01, 2-[6-[(3R)-3-[[6-(cyclopropylmethoxy)-3-pyridyl]oxy]-2-oxo-pyrrolidin-1-yl]-8-fluoro-3-oxo-[1,2,4]triazolo[4,3-a]pyridin-2-yl]-N,N-dimethyl-acetamide], the figure is 126 nM.
To `O=C(O)Cn1cc2ccc(N3CC[C@@H](Oc4ccc(OCC5CC5)nc4)C3=O)cc2n1` [Example 1-16, 2-[6-[(3R)-3-[[6-(cyclopropylmethoxy)-3-pyridyl]oxy]-2-oxo-pyrrolidin-1-yl]indazol-2-yl]acetic acid] belongs 12000 nM; to `O=C1[C@H](Oc2ccc(OCC3CC3)nc2)CCN1c1ccc2n[nH]c(=O)n2c1` [Example 1-14, 6-[(3R)-3-[[6-(cyclopropylmethoxy)-3-pyridyl]oxy]-2-oxo-pyrrolidin-1-yl]-2H-[1,2,4]triazolo[4,3-a]pyridin-3-one], 701 nM; to `NC(=O)Cn1nc2ccc(N3CC[C@@H](Oc4ccc(OCC5CC5)nc4)C3=O)cc2n1` [Example 2-05, 2-[5-[(3R)-3-[[6-(cyclopropylmethoxy)-3-pyridyl]oxy]-2-oxo-pyrrolidin-1-yl]benzotriazol-2-yl]acetamide], 196 nM.
On to `O=C1[C@H](Oc2ccc(OCC3CC3)nc2)CCN1c1cc(F)c2n[nH]c(=O)n2c1` [Example 1-25, 6-[(3R)-3-[[6-(cyclopropylmethoxy)-3-pyridyl]oxy]-2-oxo-pyrrolidin-1-yl]-8-fluoro-2H-[1,2,4]triazolo[4,3-a]pyridin-3-one], for which the EC50 stood at 249 nM.
As for `COC(=O)c1nc2ccc(N3CC[C@@H](Oc4ccc(OCC5CC5)nc4)C3=O)cn2n1` [Example 1-08, methyl 6-[(3R)-3-[[6-(cyclopropylmethoxy)-3-pyridyl]oxy]-2-oxo-pyrrolidin-1-yl]-[1,2,4]triazolo[1,5-a]pyridine-2-carboxylate], the figure is 5540 nM.
